The values below come from patent US8772029B2, “Modulation of oocyte meiotic progression and oocyte activation” (Northwestern University, priority 2011, dated 2014).

This assay relates to oocytes. Put plainly: Spindle phenotype scoring after in vitro maturation (IVM) with TPEN, MI-MII transition. The class given is cell-based, mouse. As for the experimental part: For IVM studies, immature female CD1 mice (17 to 21 day old) were injected with 5IU equine chorionic gonadotropin (eCG) (Calbiochem, La Jolla, CA) in 100 μL sterile phosphate-buffered saline (PBS), intraperitoneally. After 44 to 48 hours, mice were anesthetized using isoflurane and euthanized by cervical dislocation. Dissected ovaries were placed in Leibovitz L-15 medium containing 1% FBS (L-15/FBS) and 0.2mM 3-isobutyl-1-methylxanthine (IBMX), and large antral follicles were punctured using 28 gauge needles to release cumulus oocyte complexes (COCs). COCs were washed through several drops of culture medium consisting of Minimum Essential Medium (MEM)-alpha with GLUTAMAX supplemented with 10% FBS, 1.5IU/mL human chorionic gonadotropin (hCG), and 5ng/mL epidermal growth factor and placed in culture medium with or without 10 μM N,N,N′,N′-tetrakis(2-pyridylmethyl) ethylenediamine (TPEN). In some experiments Z-Leu-Leu-Leu-al (MG132) was added to culture medium at 20 μM. COCs were cultured in drops of pre-equilibrated medium covered with embryo quality mineral oil at 37° C. in 5% CO2 with a humid environment. Ovulated MII eggs were collected from 4 to 6 week old mice primed with 5IU PMSG followed 48 h later by 5IU hCG. Oviducts were dissected into L-15/FBS, and eggs were removed and treated with 0.03% (w/v) hyaluronidase to remove cumulus cells. Eggs were washed and cultured in potassium simplex optimized medium (KSOM) (Millipore, Billerica, MA) covered with embryo quality mineral oil at 37° C. in 5% CO2.
Oocytes were denuded of cumulus cells and fixed in a microtubule stabilizing buffer (Ibanez et al., 2005) containing 2% formaldehyde and 1% Triton X-100 for 30 min at 37° C. Oocytes were washed and blocked in PBS containing 0.1M glycine, 3mg/mL BSA, 0.01% Tween 20, and 0.01% sodium azide for at least 1 h and were stored in blocking solution at 4° C. for up to 2 weeks. Oocytes were incubated with anti-tubulin antibody (1:100) for 1 h at 37C. followed by three washes in blocking solution. They were then incubated for 1 h in AlexaFluor-488 conjugated anti-mouse secondary antibody (5μg/mL) and rhodamine-phalloidin (2U/mL), washed three additional times, and mounted in VECTASHIELD with DAPI. Microscopy was performed using a Leica SP5 inverted laser-scanning confocal microscope with a 63x oil immersion objective (Leica Microsystems, Heidelberg, Germany). Images were processed using LAS AF software (Leica Microsystems). […]
Oocytes treated with TPEN during the MI-MII transition fail to enter MII. Following IVM under the conditions listed in control (C) or TPEN-containing (T) medium, oocytes were stained and imaged, and their spindle phenotypes were scored.

Setting [1] is: COCs in control medium 7.5 h, then 10 μM TPEN 6.5 h, n=42.
Where [2] appears, read: COCs in control medium 7.5 h, then 10 μM TPEN 6.5 h, n=42, listed as T.

For the compound `c1ccc(CN(CCN(Cc2ccccn2)Cc2ccccn2)Cc2ccccn2)nc1` [TPEN, N,N,N′,N′-tetrakis(2-pyridylmethyl)ethylenediamine], under setting [1], the “TPEN-like (telophase-I arrest-like) spindle phenotype” value was 31%; the “normal MII spindle” value was “failed to form MII spindles and none”; the “other (>2 chr. masses) spindle phenotype” value worked out at 19%; the “partial TPEN-like (chromatin mass) spindle phenotype” value (“partial TPEN-like” for short) is 54%. Besides, under setting [2], the “TPEN-like (telophase-I arrest-like) spindle phenotype” value was found to be 31%, the “normal MII spindle” value came out at 0% and the “partial TPEN-like” value was 54%. In addition, under “TPEN 14 h IVM, n=34”, the “TPEN-like (telophase-I arrest-like) spindle phenotype” value was determined as 91%, the “normal MII spindle” value worked out at 0%, the “other (>2 chr. masses) spindle phenotype” value amounted to 6% and the “partial TPEN-like” value is reported as 3%.
